In US10344060B2 (priority 2013, dated 2019):

Columns and labels:
Assay in all cases: cell-based
hNav1.7 = hNav1.7 (Homo sapiens, UniProt Q15858); assay type: cell-based; details: PatchXpress, tonic block, human Nav1.7; read-out: PX hNav1.7 Tonic IC50
rNav1.7 = rNav1.7 (Rattus norvegicus, UniProt O08562); details: for IC50: PatchXpress, tonic block, rat Nav1.7, read-out: PX rNav1.7 Tonic IC50; for rNav1.7/hNav1.7: ratio of PX tonic IC50, rat Nav1.7 over human Nav1.7
mNav1.7 = mNav1.7 (Mus musculus, UniProt Q62205); details: for IC50: PatchXpress, tonic block, mouse Nav1.7, read-out: PX mNav1.7 Tonic IC50; for mNav1.7/hNav1.7: ratio of PX tonic IC50, mouse Nav1.7 over human Nav1.7
Chain of mNav1.7 (Q62205 whole entry): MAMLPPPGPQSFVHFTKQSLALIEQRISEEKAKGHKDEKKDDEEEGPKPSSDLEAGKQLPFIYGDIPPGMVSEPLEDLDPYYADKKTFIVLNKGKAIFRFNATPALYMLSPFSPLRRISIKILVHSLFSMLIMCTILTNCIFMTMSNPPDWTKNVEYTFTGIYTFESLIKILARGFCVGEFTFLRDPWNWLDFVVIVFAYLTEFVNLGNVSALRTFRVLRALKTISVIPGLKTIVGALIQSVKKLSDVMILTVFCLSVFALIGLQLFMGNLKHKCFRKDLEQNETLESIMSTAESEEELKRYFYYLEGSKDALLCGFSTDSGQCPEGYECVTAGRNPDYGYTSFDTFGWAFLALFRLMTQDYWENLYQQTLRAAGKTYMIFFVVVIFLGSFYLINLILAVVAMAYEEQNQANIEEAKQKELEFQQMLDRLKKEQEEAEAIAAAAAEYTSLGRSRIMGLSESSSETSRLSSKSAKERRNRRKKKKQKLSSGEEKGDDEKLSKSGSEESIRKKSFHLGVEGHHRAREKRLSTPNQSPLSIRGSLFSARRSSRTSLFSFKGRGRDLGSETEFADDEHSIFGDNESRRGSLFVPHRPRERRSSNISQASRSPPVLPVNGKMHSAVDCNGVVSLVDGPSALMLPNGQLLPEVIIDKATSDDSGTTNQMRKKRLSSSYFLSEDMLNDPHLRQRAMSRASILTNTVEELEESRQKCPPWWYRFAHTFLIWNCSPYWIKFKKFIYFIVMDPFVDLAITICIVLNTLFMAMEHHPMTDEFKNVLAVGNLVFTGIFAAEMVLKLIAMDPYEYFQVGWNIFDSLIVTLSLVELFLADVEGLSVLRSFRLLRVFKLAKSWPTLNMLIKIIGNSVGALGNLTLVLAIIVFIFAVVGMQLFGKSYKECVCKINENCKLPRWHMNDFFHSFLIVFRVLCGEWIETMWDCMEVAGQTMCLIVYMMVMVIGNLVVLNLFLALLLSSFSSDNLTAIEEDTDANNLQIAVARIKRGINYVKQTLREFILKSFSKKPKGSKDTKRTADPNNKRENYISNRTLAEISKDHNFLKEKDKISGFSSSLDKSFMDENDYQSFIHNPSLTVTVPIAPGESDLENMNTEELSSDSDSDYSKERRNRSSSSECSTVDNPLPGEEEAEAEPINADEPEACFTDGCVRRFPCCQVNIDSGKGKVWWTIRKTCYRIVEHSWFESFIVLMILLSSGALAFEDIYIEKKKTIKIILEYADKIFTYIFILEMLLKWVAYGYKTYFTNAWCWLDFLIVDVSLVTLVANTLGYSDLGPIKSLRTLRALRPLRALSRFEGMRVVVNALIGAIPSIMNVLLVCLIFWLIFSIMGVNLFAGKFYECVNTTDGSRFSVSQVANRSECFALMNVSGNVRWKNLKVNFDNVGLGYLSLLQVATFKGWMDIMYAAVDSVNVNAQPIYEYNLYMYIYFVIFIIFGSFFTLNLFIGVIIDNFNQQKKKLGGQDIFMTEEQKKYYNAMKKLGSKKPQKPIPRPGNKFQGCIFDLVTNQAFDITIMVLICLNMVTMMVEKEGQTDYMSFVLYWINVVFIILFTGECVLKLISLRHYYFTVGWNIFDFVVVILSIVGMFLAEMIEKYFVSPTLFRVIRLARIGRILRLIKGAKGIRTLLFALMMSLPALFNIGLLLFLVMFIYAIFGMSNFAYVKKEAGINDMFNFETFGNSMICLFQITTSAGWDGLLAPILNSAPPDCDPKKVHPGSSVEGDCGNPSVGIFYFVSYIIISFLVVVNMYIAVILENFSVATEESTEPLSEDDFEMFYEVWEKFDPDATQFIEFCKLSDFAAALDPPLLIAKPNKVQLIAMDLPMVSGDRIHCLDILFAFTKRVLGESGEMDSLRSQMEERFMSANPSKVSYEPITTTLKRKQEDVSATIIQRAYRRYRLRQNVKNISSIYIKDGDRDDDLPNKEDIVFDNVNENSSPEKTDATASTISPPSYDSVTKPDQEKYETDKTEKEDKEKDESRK

Chain of rNav1.7 (O08562 whole entry): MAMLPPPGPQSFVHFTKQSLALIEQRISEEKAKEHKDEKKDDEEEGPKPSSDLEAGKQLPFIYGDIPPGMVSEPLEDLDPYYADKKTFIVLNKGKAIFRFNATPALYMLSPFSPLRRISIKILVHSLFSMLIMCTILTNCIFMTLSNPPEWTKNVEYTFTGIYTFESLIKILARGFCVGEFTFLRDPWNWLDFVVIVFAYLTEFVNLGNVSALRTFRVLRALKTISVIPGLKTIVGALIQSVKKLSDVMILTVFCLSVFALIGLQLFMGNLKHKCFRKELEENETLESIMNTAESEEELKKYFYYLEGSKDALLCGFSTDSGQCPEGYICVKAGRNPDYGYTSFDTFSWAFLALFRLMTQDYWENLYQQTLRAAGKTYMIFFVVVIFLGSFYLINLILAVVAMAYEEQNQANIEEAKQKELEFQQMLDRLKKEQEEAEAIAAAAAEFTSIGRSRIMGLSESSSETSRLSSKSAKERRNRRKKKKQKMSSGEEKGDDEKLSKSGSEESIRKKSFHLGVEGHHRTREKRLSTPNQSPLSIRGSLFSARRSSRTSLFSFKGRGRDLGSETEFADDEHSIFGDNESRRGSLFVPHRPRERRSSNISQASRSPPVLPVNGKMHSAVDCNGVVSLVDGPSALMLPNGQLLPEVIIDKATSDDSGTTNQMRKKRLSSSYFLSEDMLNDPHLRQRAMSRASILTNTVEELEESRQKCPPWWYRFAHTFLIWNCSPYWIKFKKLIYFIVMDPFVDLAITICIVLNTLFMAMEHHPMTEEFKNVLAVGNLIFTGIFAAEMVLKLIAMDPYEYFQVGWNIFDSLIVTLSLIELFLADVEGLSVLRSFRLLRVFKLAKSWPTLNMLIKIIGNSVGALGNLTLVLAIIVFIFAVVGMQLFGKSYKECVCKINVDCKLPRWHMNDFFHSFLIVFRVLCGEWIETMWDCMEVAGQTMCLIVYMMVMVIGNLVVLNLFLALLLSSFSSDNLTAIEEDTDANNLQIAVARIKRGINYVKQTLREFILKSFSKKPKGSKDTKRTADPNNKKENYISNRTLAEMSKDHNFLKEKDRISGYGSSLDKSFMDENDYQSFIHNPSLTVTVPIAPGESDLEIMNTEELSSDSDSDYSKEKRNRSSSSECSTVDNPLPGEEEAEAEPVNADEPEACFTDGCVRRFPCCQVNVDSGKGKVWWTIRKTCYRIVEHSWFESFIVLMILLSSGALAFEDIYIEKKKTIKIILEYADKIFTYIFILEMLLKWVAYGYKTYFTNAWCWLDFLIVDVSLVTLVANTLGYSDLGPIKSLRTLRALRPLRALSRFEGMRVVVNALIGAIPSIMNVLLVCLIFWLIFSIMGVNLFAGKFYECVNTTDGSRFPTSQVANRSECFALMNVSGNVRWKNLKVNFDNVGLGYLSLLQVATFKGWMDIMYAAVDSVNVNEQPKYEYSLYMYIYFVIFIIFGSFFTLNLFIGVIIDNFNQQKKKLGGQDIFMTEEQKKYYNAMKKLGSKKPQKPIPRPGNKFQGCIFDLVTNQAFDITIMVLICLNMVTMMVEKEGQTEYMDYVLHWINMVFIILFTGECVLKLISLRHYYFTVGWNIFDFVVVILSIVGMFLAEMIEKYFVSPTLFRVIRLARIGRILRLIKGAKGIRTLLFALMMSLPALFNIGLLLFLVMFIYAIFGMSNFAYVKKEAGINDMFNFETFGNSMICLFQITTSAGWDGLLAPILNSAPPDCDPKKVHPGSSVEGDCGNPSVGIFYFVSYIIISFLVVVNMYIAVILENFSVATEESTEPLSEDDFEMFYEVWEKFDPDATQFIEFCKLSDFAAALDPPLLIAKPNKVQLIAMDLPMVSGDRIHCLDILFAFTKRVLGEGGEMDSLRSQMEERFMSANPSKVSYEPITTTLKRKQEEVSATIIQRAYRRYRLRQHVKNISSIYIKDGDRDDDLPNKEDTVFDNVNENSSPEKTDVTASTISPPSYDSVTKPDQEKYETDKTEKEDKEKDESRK

## C#CC[C@H](N)C(=O)N[C@@H](Cc1ccc(O)cc1)C(=O)N[C@H]1CSSC[C@@H]2NC(=O)[C@@H]3CSSC[C@@H](C(=O)N[C@@H](CCCNC(=N)N)C(=O)N[C@@H](CCCCN)C(=O)N[C@@H](CCC(=O)O)C(=O)N[C@@H](Cc4c[nH]c5ccccc45)C(N)=O)NC(=O)[C@H](Cc4c[nH]c5ccccc45)NC(=O)[C@H](CC(C)C)NC(=O)[C@H](CCCCN)NC(=O)[C@H](CSSC[C@H](NC(=O)[C@H]([C@@H](C)O)NC(=O)[C@H](Cc4c[nH]c5ccccc45)NC(=O)[C@H](CCCC)NC(=O)[C@H](Cc4c[nH]c5ccccc45)NC(=O)[C@H](CCCCN)NC(=O)[C@H](CCC(N)=O)NC1=O)C(=O)N[C@@H](CC(=O)O)C(=O)N[C@@H](CO)C(=O)N[C@@H](CCCCN)C(=O)N[C@@H](CCCNC(=N)N)C(=O)N[C@@H](C)C(=O)N3)NC(=O)[C@H](CCCNC(=N)N)NC(=O)[C@H](CC(C)C)NC(=O)CNC(=O)[C@H](CCC(=O)O)NC2=O [Pra-[Nle6; Glu28; Trp29]JzTx-V(1-29)]
hNav1.7
  IC50: 0.352 nM
rNav1.7
  IC50: 0.097 nM
  rNav1.7/hNav1.7: 0.27
mNav1.7
  IC50: 3.11 nM
  mNav1.7/hNav1.7: 8.82

## C#CC[C@H](NC(=O)[C@@H](N)CCC(=O)O)C(=O)N[C@H]1CSSC[C@@H]2NC(=O)[C@@H]3CSSC[C@@H](C(=O)N[C@@H](CCCNC(=N)N)C(=O)N[C@@H](CCCCN)C(=O)N[C@@H](CCC(=O)O)C(=O)N[C@H](C(N)=O)[C@@H](C)CC)NC(=O)[C@H](Cc4c[nH]c5ccccc45)NC(=O)[C@H](CC(C)C)NC(=O)[C@H](CCCCN)NC(=O)[C@H](CSSC[C@H](NC(=O)[C@H]([C@@H](C)O)NC(=O)[C@H](Cc4c[nH]c5ccccc45)NC(=O)[C@H](CCCC)NC(=O)[C@H](Cc4c[nH]c5ccccc45)NC(=O)[C@H](CCCCN)NC(=O)[C@H](CCC(N)=O)NC1=O)C(=O)N[C@@H](CC(=O)O)C(=O)N[C@@H](CO)C(=O)N[C@@H](CCCCN)C(=O)N[C@@H](CCCNC(=N)N)C(=O)N[C@@H](CCC(=O)O)C(=O)N3)NC(=O)[C@H](CCCNC(=N)N)NC(=O)[C@H](CC(C)C)NC(=O)CNC(=O)[C@H](CCC(=O)O)NC2=O [Glu-[Pra1; Nle6; Glu14, 28]JzTx-V(1-29)]
rNav1.7
  IC50: 3.34 nM
  rNav1.7/hNav1.7: 5.94
mNav1.7
  IC50: 16.1 nM
  mNav1.7/hNav1.7: 28.63

## C#CC[C@H](N)C(=O)N[C@@H](Cc1ccc(O)cc1)C(=O)N[C@H]1CSSC[C@@H]2NC(=O)[C@@H]3CSSC[C@@H](C(=O)N[C@@H](CCCNC(=N)N)C(=O)N[C@@H](CCCCN)C(=O)N[C@@H](CCC(=O)O)C(=O)N[C@H](C(N)=O)[C@@H](C)CC)NC(=O)[C@H](Cc4c[nH]c5ccc(Br)cc45)NC(=O)[C@H](CC(C)C)NC(=O)[C@H](CCCCN)NC(=O)[C@H](CSSC[C@H](NC(=O)[C@H]([C@@H](C)O)NC(=O)[C@H](Cc4c[nH]c5ccccc45)NC(=O)[C@H](CCCC)NC(=O)[C@H](Cc4c[nH]c5ccccc45)NC(=O)[C@H](CCCCN)NC(=O)[C@H](CCC(N)=O)NC1=O)C(=O)N[C@@H](CC(=O)O)C(=O)N[C@@H](CO)C(=O)N[C@@H](CCCCN)C(=O)N[C@@H](CCCNC(=N)N)C(=O)N[C@@H](C)C(=O)N3)NC(=O)[C@H](CCCNC(=N)N)NC(=O)[C@H](CC(C)C)NC(=O)CNC(=O)[C@H](CCC(=O)O)NC2=O [Pra-[Nle6; 5-BrW24; Glu28]JzTx-V(1-29)]
rNav1.7
  IC50: 2.43 nM
  rNav1.7/hNav1.7: 62.26
mNav1.7
  IC50: 0.911 nM
  mNav1.7/hNav1.7: 23.34

## CC[C@H](C)[C@H](NC(=O)[C@H](CCCCN)NC(=O)[C@H](CCCNC(=N)N)NC(=O)[C@@H]1CSSC[C@@H]2NC(=O)[C@H](C)NC(=O)[C@H](CCCNC(=N)N)NC(=O)[C@H](CCCCN)NC(=O)[C@H](CO)NC(=O)[C@H](CC(=O)O)NC(=O)[C@@H]3CSSC[C@H](NC(=O)[C@H](CCC(=O)O)NC(=O)[C@H](CC(C)C)NC(=O)CNC(=O)[C@H](CCC(=O)O)NC(=O)[C@H](CSSC[C@H](NC(=O)[C@@H](N)Cc4ccc(O)cc4)C(=O)N[C@@H](CCC(N)=O)C(=O)N[C@@H](CCCCN)C(=O)N[C@@H](Cc4c[nH]c5ccccc45)C(=O)N[C@@H](CCSC)C(=O)N[C@@H](Cc4c[nH]c5ccccc45)C(=O)N[C@@H]([C@@H](C)O)C(=O)N3)NC2=O)C(=O)N[C@@H](CCCCN)C(=O)N[C@@H](CC(C)C)C(=O)N[C@@H](Cc2c[nH]c3ccccc23)C(=O)N1)C(=O)N[C@@H](Cc1c[nH]c2ccccc12)C(N)=O [[Glu20, Trp29]JzTx-V]
rNav1.7
  IC50: 1.3 nM
  rNav1.7/hNav1.7: 0.82
mNav1.7
  IC50: 5.08 nM
  mNav1.7/hNav1.7: 3.20

## CCCC[C@@H]1NC(=O)[C@H](Cc2c[nH]c3ccccc23)NC(=O)[C@H](CCCCN)NC(=O)[C@H](CCC(N)=O)NC(=O)[C@@H](NC(=O)[C@H](Cc2ccc(O)cc2)NC(=O)[C@@H](N)Cc2cn(CCOCCOCCOCCOCCOCCOCCOCCOCCOCCOCCN)nn2)CSSC[C@@H]2NC(=O)[C@@H]3CSSC[C@@H](C(=O)N[C@@H](CCCNC(=N)N)C(=O)N[C@@H](CCCCN)C(=O)N[C@H](C(=O)N[C@H](C(N)=O)[C@@H](C)CC)[C@@H](C)CC)NC(=O)[C@H](Cc4c[nH]c5ccccc45)NC(=O)[C@H](CC(C)C)NC(=O)[C@H](CCCCN)NC(=O)[C@H](CSSC[C@H](NC(=O)[C@H]([C@@H](C)O)NC(=O)[C@H](Cc4c[nH]c5ccccc45)NC1=O)C(=O)N[C@@H](CC(=O)O)C(=O)N[C@@H](CO)C(=O)N[C@@H](CCCCN)C(=O)N[C@@H](CCCNC(=N)N)C(=O)N[C@@H](C)C(=O)N3)NC(=O)[C@H](CCCNC(=N)N)NC(=O)[C@H](CC(C)C)NC(=O)CNC(=O)[C@H](CCC(=O)O)NC2=O [Atz(NPEG9)-[Nle6]JzTx-V(1-29)]
rNav1.7
  rNav1.7/hNav1.7: 0.22
mNav1.7
  mNav1.7/hNav1.7: 1.65

## C#CC[C@@H]1NC(=O)[C@H](CC(=O)O)NC(=O)[C@@H]2CSSC[C@@H]3NC(=O)[C@H](CCCNC(=N)N)NC(=O)[C@H](CC(C)C)NC(=O)CNC(=O)[C@H](CCC(=O)O)NC(=O)[C@H](CSSC[C@H](NC(=O)[C@H](Cc4ccc(O)cc4)NC(=O)[C@@H](N)CC#N)C(=O)N[C@@H](CCC(N)=O)C(=O)N[C@@H](CCCCN)C(=O)N[C@@H](Cc4c[nH]c5ccccc45)C(=O)N[C@@H](CCCC)C(=O)N[C@@H](Cc4c[nH]c5ccccc45)C(=O)N[C@@H]([C@@H](C)O)C(=O)N2)NC(=O)[C@H](CSSC[C@@H](C(=O)N[C@@H](CCCNC(=N)N)C(=O)N[C@@H](CCCCN)C(=O)N[C@@H](CCC(=O)O)C(=O)N[C@H](C(N)=O)[C@@H](C)CC)NC(=O)[C@H](Cc2c[nH]c4ccccc24)NC(=O)[C@H](CC(C)C)NC(=O)[C@H](CCCCN)NC3=O)NC(=O)[C@H](C)NC(=O)[C@H](CCCNC(=N)N)NC(=O)[C@H](CCCCN)NC1=O [CyA-[Nle6; Pra11; Glu28]JzTx-V(1-29)]
rNav1.7
  IC50: 2.24 nM
  rNav1.7/hNav1.7: 11.58
mNav1.7
  IC50: 4.04 nM
  mNav1.7/hNav1.7: 20.87

## C#CC[C@H](N)C(=O)N[C@@H](Cc1ccc(O)cc1)C(=O)N[C@H]1CSSC[C@@H]2NC(=O)[C@@H]3CSSC[C@@H](C(=O)N[C@@H](CCCNC(=N)N)C(=O)N[C@@H](CCCCN)C(=O)N[C@@H](CCC(=O)O)C(=O)N[C@H](C(N)=O)[C@@H](C)CC)NC(=O)[C@H](Cc4c[nH]c5ccccc45)NC(=O)[C@H](C4CCCCC4)NC(=O)[C@H](CCCCN)NC(=O)[C@H](CSSC[C@H](NC(=O)[C@H]([C@@H](C)O)NC(=O)[C@H](Cc4c[nH]c5ccccc45)NC(=O)[C@H](CCCC)NC(=O)[C@H](Cc4c[nH]c5ccccc45)NC(=O)[C@H](CCCCN)NC(=O)[C@H](CCC(N)=O)NC1=O)C(=O)N[C@@H](CC(=O)O)C(=O)N[C@@H](CO)C(=O)N[C@@H](CCCCN)C(=O)N[C@@H](CCCNC(=N)N)C(=O)N[C@@H](C)C(=O)N3)NC(=O)[C@H](CCCNC(=N)N)NC(=O)[C@H](CC(C)C)NC(=O)CNC(=O)[C@H](CCC(=O)O)NC2=O [Pra-[Nle6; Chg23; Glu28]JzTx-V(1-29)]
rNav1.7
  IC50: 3.27 nM
  rNav1.7/hNav1.7: 6.68
mNav1.7
  IC50: 0.884 nM
  mNav1.7/hNav1.7: 1.81

## CCCC[C@@H]1NC(=O)[C@H](Cc2c[nH]c3ccccc23)NC(=O)[C@H](CCCCN)NC(=O)[C@H](CCC(N)=O)NC(=O)[C@@H](NC(=O)[C@H](Cc2ccc(O)cc2)NC(=O)[C@@H](N)CC#N)CSSC[C@@H]2NC(=O)[C@@H]3CSSC[C@@H](C(=O)N[C@@H](CCCNC(=N)N)C(=O)N[C@@H](CCCCN)C(=O)N[C@@H](CCC(=O)O)C(=O)N[C@H](C(N)=O)[C@@H](C)CC)NC(=O)[C@H](Cc4c[nH]c5ccccc45)NC(=O)[C@H](CC(C)C)NC(=O)[C@H](CCCCN)NC(=O)[C@H](CSSC[C@H](NC(=O)[C@H]([C@@H](C)O)NC(=O)[C@H](Cc4c[nH]c5ccccc45)NC1=O)C(=O)N[C@@H](CC(=O)O)C(=O)N[C@@H](CO)C(=O)N[C@@H](CCCCN)C(=O)N[C@@H](CCCNC(=N)N)C(=O)N[C@@H](C)C(=O)N3)NC(=O)[C@H](CCCNC(=N)N)NC(=O)[C@H](CC(C)C)NC(=O)CNC(=O)[C@H](Cc1cn(CCCOCCOCCOCCOCCOCCOCCOCCOCCOCCOCCN)nn1)NC2=O
rNav1.7
  rNav1.7/hNav1.7: 0.46
mNav1.7
  mNav1.7/hNav1.7: 2.23

## C#CC[C@@H]1NC(=O)[C@H](CC(=O)O)NC(=O)[C@@H]2CSSC[C@@H]3NC(=O)[C@H](CCCNC(=N)N)NC(=O)[C@H](CC(C)C)NC(=O)CNC(=O)[C@H](CCC(=O)O)NC(=O)[C@H](CSSC[C@H](NC(=O)[C@@H](N)Cc4ccc(O)cc4)C(=O)N[C@@H](CCC(N)=O)C(=O)N[C@@H](CCCCN)C(=O)N[C@@H](Cc4c[nH]c5ccccc45)C(=O)N[C@@H](CCCC)C(=O)N[C@@H](Cc4c[nH]c5ccccc45)C(=O)N[C@@H]([C@@H](C)O)C(=O)N2)NC(=O)[C@H](CSSC[C@@H](C(=O)N[C@@H](CCCNC(=N)N)C(=O)N[C@@H](CCCCN)C(=O)N[C@@H](CCC(=O)O)C(=O)N[C@H](C(N)=O)[C@@H](C)CC)NC(=O)[C@H](Cc2c[nH]c4ccccc24)NC(=O)[C@H](CC(C)C)NC(=O)[C@H](CCCCN)NC3=O)NC(=O)[C@H](C)NC(=O)[C@H](CCCNC(=N)N)NC(=O)[C@H](CCCCN)NC1=O [[Nle6; Pra11; Glu28]JzTx-V(1-29)]
hNav1.7
  IC50: 0.473 nM
rNav1.7
  IC50: 3.83 nM
  rNav1.7/hNav1.7: 8.10
mNav1.7
  IC50: 3.69 nM
  mNav1.7/hNav1.7: 7.81
